Type in all cases: functional
For experiment [1], the system named is Acinetobacter baumannii. The experiment can be described thus: Antibacterial activity against Acinetobacter baumannii MB5973 incubated for 20 hrs.
For experiment [2], the system named is Pseudomonas aeruginosa. The experiment can be described thus: Antibacterial activity against Pseudomonas aeruginosa ATCC 27853 incubated for 20 hrs.
The subject of experiment [3] is Escherichia coli. The experiment can be described thus: Antibacterial activity against Escherichia coli ATCC 25922 incubated for 20 hrs.

≈ marks a conversion by molar mass, not a printed value.

`[C-]#[N+]C(=C)[C@](Cc1ccc(OC)cc1)([N+]#[C-])[C@H]1C[C@@H](O)CC[C@@H]1OC(C)=O`: the minimum inhibitory concentration (MIC) in experiment [1] came out at 0.5 µg/mL (≈ 1.36 µM); in experiment [2], 16 µg/mL (≈ 43.4 µM).

As for `[C-]#[N+]C(=C)[C@](Cc1ccc(OC)cc1)([N+]#[C-])[C@H]1C[C@@H](O)CC[C@@H]1OC(=O)CO`, the figures for the MIC in experiment [3], in experiment [1] and in experiment [2] were 16 µg/mL (≈ 41.6 µM), 0.25 µg/mL (≈ 0.65 µM) and 2 µg/mL (≈ 5.2 µM), respectively.

In the case of `[C-]#[N+]C(=C)[C@](Cc1ccc(OC)cc1)([N+]#[C-])[C@H]1C[C@@H](O)C=C[C@@H]1OC(=O)CO`, the values for the MIC in experiment [3], in experiment [1] and in experiment [2] were 16 µg/mL (≈ 41.8 µM), 0.25 µg/mL (≈ 0.654 µM) and 64 µg/mL (≈ 167 µM), respectively.

For the compound `[C-]#[N+]C(=C)[C@](Cc1ccc(OC)cc1)([N+]#[C-])[C@H]1C[C@@H](O)C=C[C@@H]1OC(C)=O`, the MIC amounted to 1 µg/mL (≈ 2.73 µM) in experiment [1] and 32 µg/mL (≈ 87.3 µM) in experiment [2].

For the compound `C[C@H]1[C@H](NC(=O)/C(=N\OC(C)(C)C(=O)O)c2csc(N)n2)C(=O)N1S(=O)(=O)O` [AZTREONAM], it took 0.25 µg/mL (≈ 0.574 µM) to inhibit growth in experiment [3] (MIC).

In experiment [1], `CO[C@H]1/C=C/O[C@@]2(C)Oc3c(C)c(O)c4c(O)c(c(/C=N/N5CCN(C)CC5)c(O)c4c3C2=O)NC(=O)/C(C)=C\C=C\[C@H](C)[C@H](O)[C@@H](C)[C@@H](O)[C@@H](C)[C@H](OC(C)=O)[C@@H]1C` [RIFAMPIN] had an MIC of 2.5 µg/mL (≈ 3.04 µM).

These data come from ChEMBL document CHEMBL6153105, “MDN-0057 to MDN-0060, a Family of Broad-Spectrum Antibiotics against Gram-Negative Pathogens Produced by Ophiosphaerella korrae” (2025).
